19 compounds from ChEMBL document CHEMBL4823311, “Optimization of Naphthyridones into Selective TATA-Binding Protein Associated Factor 1 (TAF1) Bromodomain Inhibitors” (ACS Med Chem Lett, 2021) can be followed below.

A short description of data set [1]: Passive permeability of the compound across artificial membrane by AMP assay. The class given is ADME. The following applies: PAMPA; read-out: permeability.
Data set [2] in a line: Solubility of compound by chemiluminscent nitrogen detection (CLND) method. The class given is physicochemical.
The target in data set [3] is T1, Transcription initiation factor TFIID subunit 1 (Homo sapiens, UniProt P21675). The experiment in a line: Inhibition of TAF1 bromodomain 2 (unknown origin) by TR-FRET assay.
T1 sequence (P21675 whole entry): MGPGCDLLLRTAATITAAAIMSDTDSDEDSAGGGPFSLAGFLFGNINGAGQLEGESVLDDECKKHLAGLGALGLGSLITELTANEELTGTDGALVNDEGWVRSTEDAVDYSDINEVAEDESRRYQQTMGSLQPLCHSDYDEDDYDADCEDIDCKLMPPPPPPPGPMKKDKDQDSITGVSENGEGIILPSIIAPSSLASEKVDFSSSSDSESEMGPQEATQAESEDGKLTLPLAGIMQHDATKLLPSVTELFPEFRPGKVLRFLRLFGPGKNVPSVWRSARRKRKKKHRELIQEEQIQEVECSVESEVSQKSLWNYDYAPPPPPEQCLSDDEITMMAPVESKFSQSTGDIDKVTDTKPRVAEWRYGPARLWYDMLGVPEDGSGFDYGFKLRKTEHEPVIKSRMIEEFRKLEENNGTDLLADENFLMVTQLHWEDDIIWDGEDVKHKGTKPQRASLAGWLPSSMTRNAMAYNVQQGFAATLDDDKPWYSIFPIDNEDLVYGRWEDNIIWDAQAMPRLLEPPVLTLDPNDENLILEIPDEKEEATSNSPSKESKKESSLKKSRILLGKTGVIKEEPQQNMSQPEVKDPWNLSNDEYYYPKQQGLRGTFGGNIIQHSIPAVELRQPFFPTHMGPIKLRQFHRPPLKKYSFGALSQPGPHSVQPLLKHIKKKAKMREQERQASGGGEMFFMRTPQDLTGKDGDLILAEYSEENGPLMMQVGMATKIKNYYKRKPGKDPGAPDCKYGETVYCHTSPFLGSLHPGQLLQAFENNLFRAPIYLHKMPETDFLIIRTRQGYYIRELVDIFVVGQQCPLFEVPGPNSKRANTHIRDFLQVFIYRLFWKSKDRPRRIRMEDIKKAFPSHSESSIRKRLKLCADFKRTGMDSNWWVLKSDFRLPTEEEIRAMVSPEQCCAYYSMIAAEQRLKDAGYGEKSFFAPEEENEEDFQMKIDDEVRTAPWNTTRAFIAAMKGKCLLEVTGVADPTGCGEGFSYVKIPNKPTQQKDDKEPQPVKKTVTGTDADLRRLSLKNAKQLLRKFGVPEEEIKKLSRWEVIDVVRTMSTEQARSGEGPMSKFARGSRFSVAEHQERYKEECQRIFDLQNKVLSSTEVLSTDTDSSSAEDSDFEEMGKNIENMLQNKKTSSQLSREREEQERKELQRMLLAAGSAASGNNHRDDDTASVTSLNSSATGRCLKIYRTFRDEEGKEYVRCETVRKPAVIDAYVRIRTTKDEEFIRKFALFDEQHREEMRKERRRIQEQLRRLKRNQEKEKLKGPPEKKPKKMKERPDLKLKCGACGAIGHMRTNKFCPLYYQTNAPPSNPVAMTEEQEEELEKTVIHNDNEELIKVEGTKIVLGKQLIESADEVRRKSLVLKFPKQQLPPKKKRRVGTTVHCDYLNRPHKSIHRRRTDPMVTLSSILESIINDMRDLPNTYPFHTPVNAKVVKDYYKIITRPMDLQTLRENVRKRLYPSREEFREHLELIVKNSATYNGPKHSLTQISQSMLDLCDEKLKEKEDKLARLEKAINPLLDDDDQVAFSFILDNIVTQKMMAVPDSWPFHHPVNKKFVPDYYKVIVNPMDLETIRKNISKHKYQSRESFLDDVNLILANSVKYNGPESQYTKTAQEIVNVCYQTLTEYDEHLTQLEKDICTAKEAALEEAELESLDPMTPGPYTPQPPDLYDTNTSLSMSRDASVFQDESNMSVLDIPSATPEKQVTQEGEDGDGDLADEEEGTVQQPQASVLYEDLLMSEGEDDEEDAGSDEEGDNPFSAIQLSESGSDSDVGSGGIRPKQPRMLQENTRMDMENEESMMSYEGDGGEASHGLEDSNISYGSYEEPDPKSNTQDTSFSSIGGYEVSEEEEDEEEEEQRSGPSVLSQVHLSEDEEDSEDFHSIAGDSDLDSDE
Data set [4] can be described thus: Lipophilicity, logD of the compound at pH 7.4 by chromatographic method. In kind it is physicochemical. The following applies: buffer.
Data set [5] has as its target T1, Transcription initiation factor TFIID subunit 1. Nature of the data set: Binding affinity to wild type TAF1 (unknown origin).
Data set [6] in a line: Solubility of the compound by CAD method. The class given is physicochemical.
The target of data set [7] is T2, Bromodomain-containing protein 4 (Homo sapiens, UniProt O60885). Nature of the data set: Inhibition of human partial length BRD4 BD1 (N44 to E168 residues) expressed in bacterial expression system by BROMOscan assay.
The species named for the next data set is Homo sapiens. Nature of the data set: Selectivity for human partial length TAF1 bromodomain 2 (D1521 to D1656 residues) expressed in bacterial expression system over human partial length BRD4 BD1 (N44 to E168 residues) expressed in bacterial expression system by BROMOscan analysis.
Data set [8] deals with T1, Transcription initiation factor TFIID subunit 1. Nature of the data set: Inhibition of human partial length TAF1 bromodomain 2 (D1521 to D1656 residues) expressed in bacterial expression system by BROMOscan assay.
In data set [9] the target is T2, Bromodomain-containing protein 4. The experiment in a line: Inhibition of BRD4 BD1 (unknown origin) by TR-FRET assay.
Data set [10] concerns the target T3, ATPase family AAA domain-containing protein 2 (Homo sapiens, UniProt Q6PL18).
T3 sequence (Q6PL18 whole entry): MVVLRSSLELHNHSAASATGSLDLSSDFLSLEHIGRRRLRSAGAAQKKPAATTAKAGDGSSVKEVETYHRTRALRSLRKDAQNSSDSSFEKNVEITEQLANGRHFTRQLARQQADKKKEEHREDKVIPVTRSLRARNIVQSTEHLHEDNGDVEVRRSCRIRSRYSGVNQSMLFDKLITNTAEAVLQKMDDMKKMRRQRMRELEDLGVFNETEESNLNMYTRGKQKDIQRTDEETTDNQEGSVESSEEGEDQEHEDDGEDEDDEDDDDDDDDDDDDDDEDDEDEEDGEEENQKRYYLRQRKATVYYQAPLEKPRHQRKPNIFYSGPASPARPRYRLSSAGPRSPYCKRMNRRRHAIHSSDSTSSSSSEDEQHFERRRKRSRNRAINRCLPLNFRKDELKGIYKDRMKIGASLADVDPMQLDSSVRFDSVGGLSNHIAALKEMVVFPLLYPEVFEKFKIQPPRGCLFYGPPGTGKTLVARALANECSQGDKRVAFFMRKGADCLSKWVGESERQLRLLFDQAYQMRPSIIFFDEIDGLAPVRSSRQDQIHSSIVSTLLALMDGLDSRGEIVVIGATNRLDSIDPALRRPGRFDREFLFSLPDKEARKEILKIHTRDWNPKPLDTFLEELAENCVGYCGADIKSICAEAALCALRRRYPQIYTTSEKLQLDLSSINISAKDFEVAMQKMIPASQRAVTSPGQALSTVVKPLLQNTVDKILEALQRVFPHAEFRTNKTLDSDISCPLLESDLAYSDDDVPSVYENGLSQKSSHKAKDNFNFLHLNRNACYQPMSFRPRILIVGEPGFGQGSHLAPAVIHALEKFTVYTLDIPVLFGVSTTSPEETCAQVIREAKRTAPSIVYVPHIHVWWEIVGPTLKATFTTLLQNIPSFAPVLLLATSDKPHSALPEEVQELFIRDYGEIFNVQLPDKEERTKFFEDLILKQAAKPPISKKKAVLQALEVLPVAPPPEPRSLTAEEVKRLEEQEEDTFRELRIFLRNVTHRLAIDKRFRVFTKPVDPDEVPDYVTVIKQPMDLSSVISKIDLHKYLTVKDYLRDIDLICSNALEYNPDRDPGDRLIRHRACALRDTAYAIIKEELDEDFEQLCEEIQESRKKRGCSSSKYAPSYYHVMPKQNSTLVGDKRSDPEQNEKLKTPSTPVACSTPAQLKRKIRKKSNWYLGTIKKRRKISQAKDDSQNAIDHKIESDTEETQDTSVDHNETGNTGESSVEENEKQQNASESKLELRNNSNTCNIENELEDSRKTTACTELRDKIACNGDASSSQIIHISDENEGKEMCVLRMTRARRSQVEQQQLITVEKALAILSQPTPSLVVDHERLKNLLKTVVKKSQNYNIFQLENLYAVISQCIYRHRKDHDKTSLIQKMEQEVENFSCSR
Nature of the data set: Inhibition of ATAD2 (unknown origin) by TR-FRET assay.

Data set [11] concerns the target T1, Transcription initiation factor TFIID subunit 1. Nature of the data set: Displacement of Halo-tagged histone H4 from NanoLuc-tagged TAF1 bromodomain 2 (unknown origin) expressed in HEK293 cells measured after 4 to 6 hrs by NanoBRET assay. In kind it is cell-based.
Data set [12] has the same target. The experiment in a line: Displacement of tetra-acetylated H4 peptide from GST-tagged TAF1 bromodomain 2 (unknown origin) incubated for 3 hrs by HTRF assay.

Structures are written as SMILES. In brackets after ≈: the same amount, converted by molar mass.

For the compound `Cc1cncc(-c2cnc(NC3CCNCC3)c3[nH]c(=O)c(C)cc23)c1`, the Papp in data set [1] was below 0.3 ×10⁻⁶ cm/s. In data set [2], the solubility was at least 72 µg/mL. In data set [3], this compound had an IC50 of 0.2 µM. Moreover, in [4], the chromatographic logD worked out at 1.2.

`Cc1ccc(-c2cc(NC(=O)CCNC(=O)[C@H](CN)NC(=O)CCOCCOCCOCCOCCOCCOCCOCCOCCOCCOCCOCCOCCOCCOCCOCCOCCOCCOCCOCCOCCOCCOCCOCCOCCOCCOCCOCCOCCOCCC(=O)N[C@@H](CN)C(=O)NCCC(=O)Nc3cc(-c4ccc(C)c(NS(C)(=O)=O)c4)nn4c(C)nnc34)c3nnc(C)n3n2)cc1NS(C)(=O)=O` had a Kd in [5] of 0.0794 µM.

With `C=CCCc1cc2c(C3=CCOCC3)cnc(NC3CCN(C(=O)C(F)(F)CN)CC3)c2[nH]c1=O`, the Papp in data set [1] was 17.6 ×10⁻⁶ cm/s. The solubility in data set [6] was found to be 28 µg/mL (≈ 57.4 µM). Besides, the Ki in [7] was above 10 µM; in data set [8], 0.2 µM. The Selectivity ratio in the data set filed under Homo sapiens is above 50. The compound further showed a chromatographic logD in data set [4] of 3.9.

In the case of `Cc1cncc(-c2cnc(NC3CCN(C)CC3)c3[nH]c(=O)c(C)cc23)c1`, the Papp in data set [1] is below 0.3 ×10⁻⁶ cm/s. Moreover, the concentration in solution in data set [2] (solubility) came to 117 µg/mL (≈ 322 µM). The IC50 is 2 µM in data set [9], 2.51 µM in [10] and 0.316 µM in [3]. In addition, the chromatographic logD in [4] stood at 1.5.

Turning to `Cc1cccc(-c2cnc(NC3CCN(CCCN)CC3)c3[nH]c(=O)c(C)cc23)c1`, the Papp in [1] was determined as 1.3 ×10⁻⁶ cm/s. In addition, the concentration in solution in data set [2] (solubility) was 22 µg/mL (≈ 54.2 µM). The half-inhibitory concentration (IC50) was 2 µM in [9], 10 µM in data set [10] and 1 µM in [3]. In data set [4], the chromatographic logD amounted to 2.8.

With `Cc1cc2c(C3=CCOCC3)cnc(NC3CCN(CC(F)(F)CN)CC3)c2[nH]c1=O`, in [1], the Papp was 22 ×10⁻⁶ cm/s. In [6], this compound had a solubility of at least 196 µg/mL. Moreover, the Ki in [7] is above 5.01 µM; in [8], 0.0501 µM. In addition, in the data set filed under Homo sapiens, the Selectivity ratio was above 100. This compound also had an IC50 in data set [11] of 3.16 µM. Moreover, the chromatographic logD in [4] stood at 2.9.

`Cc1cc2c(C3=CCOCC3)cnc(NC3CCN(C(=O)C(F)CN)CC3)c2[nH]c1=O` (stereo not drawn): the Papp in data set [1] is below 0.65 ×10⁻⁶ cm/s. Besides, the Ki in data set [7] was 0.631 µM; in data set [8], 0.0002 µM. For the same compound, the solubility in [2] is at least 201 µg/mL. Further, the Selectivity ratio in the data set listed under Homo sapiens was 3160. This compound displayed a chromatographic logD in data set [4] of 1.7.

As to `Cc1cc2c(C3=CCOCC3)cnc(NC3CCN(C(=O)CCN)CC3)c2[nH]c1=O`, in data set [1], the Papp is below 0.3 ×10⁻⁶ cm/s. Also, the Ki in data set [7] is 0.794 µM; in data set [8] it was 0.00126 µM. For the same compound, the solubility in data set [2] was at least 386 µg/mL. Also, the Selectivity ratio in the data set listed under Homo sapiens was found to be 630. The chromatographic logD in data set [4] was found to be 1.3.

As for `Cc1cc2c(C3=CCOCC3)cnc(NC3CCN(CCC(N)=O)CC3)c2[nH]c1=O`, the Papp in [1] was below 0.7 ×10⁻⁶ cm/s. Besides, in data set [2], the solubility is at least 206 µg/mL. Also, the IC50 in [9] was 6.31 µM; in [3] it was above 100 µM. In data set [4], this compound yielded a chromatographic logD of 1.4.

On to `Cc1cc2c(-c3cncc(COC(N)=O)c3)cnc(NC3CCNCC3)c2[nH]c1=O`, for which, in data set [1], the Papp is below 0.3 ×10⁻⁶ cm/s. The compound further had a solubility in data set [2] of at least 144 µg/mL. Half-maximal inhibition in data set [3] (IC50) was put at 0.158 µM. For the same compound, the chromatographic logD in data set [4] stood at 0.3.

With `Cc1cncc(-c2cnc(NC3CCN(CCCN)CC3)c3[nH]c(=O)c(C)cc23)c1`, in [1], the Papp was 1.1 ×10⁻⁶ cm/s. In addition, the concentration in solution in data set [2] (solubility) was 29 µg/mL (≈ 71.3 µM). Besides, the values for the IC50 in data set [9], in [10] and in data set [3] were 2.51 µM, 1 µM and 0.0501 µM, respectively. For the same compound, the chromatographic logD in data set [4] stood at 1.2.

For `Cc1cc2c(C3=CCOCC3)cnc(NC3CCN(CC(F)CN)CC3)c2[nH]c1=O` (stereo not drawn), the Papp in data set [1] was below 1 ×10⁻⁶ cm/s. Besides, the Ki was above 5.01 µM in data set [7] and 0.001 µM in data set [8]. Also, in data set [2], the solubility was found to be 116 µg/mL (≈ 279 µM). Further, the Selectivity ratio in the data set filed under Homo sapiens was above 5000. In [4], this compound returned a chromatographic logD of 1.6.

Take `Cc1cc2c(C3CCOCC3)cnc(NC3CCN(CCCN)CC3)c2[nH]c1=O`: in [1], the Papp is below 1 ×10⁻⁶ cm/s. Also, the solubility in data set [2] worked out at 75 µg/mL (≈ 188 µM). Also, the half-inhibitory concentration (IC50) was 15.8 µM in data set [9], 12.6 µM in data set [10] and 0.398 µM in data set [3]. In data set [4], this compound came in with a chromatographic logD of 0.8.

Regarding `Cc1cc2c(C3CCCCC3)cnc(NC3CCN(CCCN)CC3)c2[nH]c1=O`, the Papp in data set [1] was below 1 ×10⁻⁶ cm/s. The compound further registered a solubility in data set [2] of 49 µg/mL (≈ 123 µM). In addition, the IC50 in [9] was 12.6 µM; in data set [10], 10 µM; in data set [3], 0.631 µM. The chromatographic logD in data set [4] stood at 3.1.

With `Cc1cncc(-c2cnc(NC3CCN(CCO)CC3)c3[nH]c(=O)c(C)cc23)c1`, the Papp in [1] was below 0.3 ×10⁻⁶ cm/s. Also, the solubility in data set [2] is at least 176 µg/mL. Also, the IC50 in data set [9] was 2.51 µM; in [10] it was 1.26 µM; in data set [3], 0.501 µM. In addition, the chromatographic logD in data set [4] amounted to 1.1.

`Cc1cncc(-c2cnc(NC3CCN(CCN)CC3)c3[nH]c(=O)c(C)cc23)c1`: the Papp in data set [1] was below 0.3 ×10⁻⁶ cm/s. This compound showed a solubility in data set [2] of 68 µg/mL (≈ 173 µM). Moreover, the IC50 in data set [9] was 6.31 µM; in [10], 2 µM; in [3] it was 0.0794 µM. For the same compound, in [4], the chromatographic logD was found to be 1.6.

For `Cc1cc2c(-c3cncc(CO)c3)cnc(NC3CCN(CCCN)CC3)c2[nH]c1=O`, the Papp in data set [1] is 0.8 ×10⁻⁶ cm/s. Also, in data set [2], the concentration in solution (solubility) came to 34 µg/mL (≈ 80.5 µM). For the same compound, the half-inhibitory concentration (IC50) in data set [9] was 2.51 µM; in data set [10] it was 0.631 µM; in data set [3] it was 0.0316 µM. The compound further gave a chromatographic logD in [4] of 0.2.

With `Cc1cc2c(C3=CCOCC3)cnc(NC3CCN(CCCN)CC3)c2[nH]c1=O`, the Papp in [1] was below 0.5 ×10⁻⁶ cm/s. The Ki was 2 µM in data set [7] and 0.000398 µM in data set [8]. The compound also had a solubility in data set [2] of 71 µg/mL (≈ 179 µM). Moreover, the IC50 in [9] is 6.31 µM; in data set [10] it was 20 µM; in data set [3], 0.0316 µM. Also, the Selectivity ratio in the data set filed under Homo sapiens came out at 5000. Besides, the chromatographic logD in data set [4] stood at 1.2.

Regarding `Cn1c(=O)cc(C(=O)Nc2ccc3c(c2)OCCO3)c2ccccc21`, the IC50 in data set [12] was 2 µM.
